Measured values as given in patent US11685904B2 (priority 2019, dated 2023).
Entries after “also recorded” stand apart in the source; their conditions may differ.

Legend:
[1] = test system: vaccinia virus expressing the TK.007 HSV-TK variant (IGV-077); set-up: species or system mice; conditions: mouse, in vivo
[2] = test system: vaccinia virus expressing the TK.007 HSV-TK variant (IGV-035); set-up: species or system BALB/c mice; conditions: mouse, in vivo

## Nc1nc(O)c2ncn(COC(CO)CO)c2n1 [ganciclovir]
[1]
  virus replication in tumors (plaque assay): significantly reduced; also recorded: completely inhibited
  virus-mediated GFP expression in tumors (immunohistochemistry): Low levels; also recorded: no virus-mediated GFP expression was detected
[2]
  average lesion size compared to the vehicle (no vaccinia virus) group: comparable to the group treated with vehicle
  healing of topical lesions caused by vaccinia virus: healed faster
  lesion size compared to the non-treated group: significantly smaller
  virus shedding from the tail scarification site: reduced virus shedding
